The text below walks through data of patent publication US20050019746A1, “Apoptosis-related kinase/GPCRs” (EiRx Therapeutics Limited, priority 2003, published 2005).

Holding throughout (type): cell-based, human
Data set [1] has as its system PC3 cells. The data set is described as follows: 10-14 day Clonagenicity Assay (MTT), PC3. The conditions noted are these: for percentage survival relative to the missense, n = 3: independent experiment n = 3, dilution point of maximum toxicity; for percentage survival relative to the missense, n = 1: independent experiment n = 1, dilution point of maximum toxicity; for percentage survival relative to the missense, n = 2: independent experiment n = 2, dilution point of maximum toxicity. The text has this: The Clonagenicity Assay represents a Cell Viability Screen that allows assessment of a cytotoxic insult at a variety of seed densities of cancer cell lines over an extended period of logarithmic growth, such that the definitive effect of the test substance can be accurately quantified. In this instance, the ‘cytotoxic insult’ to be tested involves the transfection of siRNA Oligomers to knockdown the expression of novel target Kinases and GPCRs as outlined previously. Cell number is quantified 10-14 days post siRNA transfection by MTT conversion as described in detail in Example 6.
The Clonagenicity Assay is optimised for each cell line examined with respect to seed number. The seed number varies for each cell line and accounts for the differences in cell size, growth rate and sensitivity to transfection-induced toxicity for each cell line pursued. Cells lines given as models for this example include HCT15, MCF7, A549, SKOV3, DU145, U251, PC3, A498 and HeLa. The siRNA oligo to Survivin serves as a positive control for toxicity in this assay and the missense control oligomer acts as a negative control as described in detail in Examples 5 and 6. The c-Raf, BCL2 and PI3K siRNA oligomers serve as additional controls as previously mentioned. The Clonagenicity assay is performed as outlined below.
Cells are seeded into a 96-well plate as described below and allowed to adhere overnight at 37° C. in a humidified atmosphere containing 5% CO2 in air. Wells are seeded with an appropriate cell number (cell line dependent) in Column 1 of the 96 well plates and this cell suspension is diluted 1 in 2 across the 96 well plates from Column 1 through to 6 (represented on the x-axis in results). Cells are next transfected with siRNA Oligomers, at a concentration of 2 μg/ml, against the genes of interest. Transfections continue for 4 hrs after which the transfection solution is removed and cells are refed with fresh medium and allow to incubate overnight. An additional media change@24 hrs post transfection is made to minimise toxicity of the transfection reagent. Cells are subsequently incubated for a 10-14 Day period post transfection at a 37° C. incubation as described above. Medium is renewed weekly following which MTT quantification is performed as described in Example 5.
To be considered cytotoxic, the siRNA Oligo against the gene target must induce a decreased viability in a cell line across at least 2 seed densities in the clonagenicity assay, such that a significant difference between the target gene and MS is observed i.e. no crossing of the Standard Error bars is detected. The average percentage viability, relative to missense, is recorded for the dilution point at which Maximum Toxicity is induced is recorded in Table 13.
Table 13 Clonagenicity Assay—This table gives the average percentage survival of the indicated cell lines relative to the missense in a clonagenicity assay, over 3 independent experiments. As an internal reference, the known survival gene ‘Survivin’, BCL2, c-Raf and PI3KR1 was also targeted by siRNA. When no Cytotoxic response is detected ‘-’ is recorded.

Data set [2] has as its system A549 cells. The data set is described as follows: 10-14 day Clonagenicity Assay (MTT), A549. Particulars: for percentage survival relative to the missense, n = 3: independent experiment n = 3, dilution point of maximum toxicity; for percentage survival relative to the missense, n = 1: independent experiment n = 1, dilution point of maximum toxicity; for percentage survival relative to the missense, n = 2: independent experiment n = 2, dilution point of maximum toxicity. A digest of the protocol:
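Extended-growth viability screen: siRNA transfected at 2 μg/ml into six serially diluted seed densities, quantified by MTT at 10-14 days. Hits needed significant loss versus missense (non-overlapping standard error bars) across two densities; maximum-toxicity point reported as mean % viability.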

The subject of data set [3] is DU145, PC3, HCT116 cells. The data set is described as follows: Annexin V apoptosis assay (Guava Nexin). Particulars: DU145, HCT116 or PC3, siRNA 50 nM, relative to mock transfected, FIG. 34. An excerpt: Apoptosis or programmed cell death is an important and active regulatory pathway of cell growth and proliferation. Cells respond to specific induction signals by initiating intracellular processes that result in characteristic physiological changes. Among these are externalisation of phosphotidylserine (PS) to the cell surface, cleavage and degradation of specific cellular proteins, compaction and fragmentation of nuclear chromatin and loss of membrane integrity (in late stages). Annexin V is a calcium-dependant phospholipid binding protein with a high affinity for phosphotidyl serine (PS), a membrane component normally localised to the internal face of the cell membrane. Early in the apoptotic pathway molecules of PS are translocated to the outer surface of the cell membrane where Annexin V can readily bind to them.
Annexin V assays are performed using the Guava Nexin Assay, which utilises Annexin V-PE to detect PS on the external membrane of apoptotic cells. The cell impermeant dye 7-AAD is included in the assay as an indicator of membrane structural integrity as it is excluded from live and early apoptotic cells but permeates late stage apoptotic and dead cells. Assays are performed using a Guava Technologies Personal Cytometer and Guava Nexin Kit (catalogue no. 4500-0010, Guava Technologies Inc) using a modification of the manufacturer's protocol, where cells are transfected with siRNA in 24-well plates and assays performed at 24, 48 and 72 hours post-transfection.
Cells (DU145, PC3 & HCT116) are plated at a density of 20000 cells/well in 500 μl medium in 24-well plates and incubated overnight at 37° C. in a humidified atmosphere containing 5% CO2. […]
The 500 μl of media is decanted from the cells and combined with 150 μl of PBS used to wash them. […] Then, 450 μl 1× Nexin Buffer is added to the cells and the cell population analysed using the Guava Personal Cytometer following the manufacturer's instructions. […] The total number of early and late apoptotic cells is measured and the relative number of apoptotic cells calculated. […]

Regarding “siRNA P14KB: sense GCUACGGAAGCUGAUCCUCtt, antisense GAGGAUCAGCUUCCGUAGCtt (sense GCUACGGAAGCUGAUCCUCTT; antisense GAGGAUCAGCUUCCGUAGCTT; chemistry not given here)”, the entries for the “percentage survival relative to the missense, n = 3” value in data set [1] and in data set [2] were 8.4% and 63.4%, respectively.

On to “siRNA ROCK: siRNA duplex, sense UACAUGCCUGGUGGAGAUCtt, antisense GAUCUCCACCAGGCAUGUAtt; same in Tables 9 and 11 (sense UACAUGCCUGGUGGAGAUCTT; antisense GAUCUCCACCAGGCAUGUATT; chemistry not given here)”, for which, in data set [1], the “percentage survival relative to the missense, n = 1” value is 50.4%; the “percentage survival relative to the missense, n = 2” value was 32.3%; the “percentage survival relative to the missense, n = 3” value came out at 22.8%. For the same substance, the “apoptosis by Annexin V staining” value in data set [3] was “undergo apoptosis”. In data set [2], the “percentage survival relative to the missense, n = 1” value is given as 16.3%; the “percentage survival relative to the missense, n = 2” value came to 28.4%; the “percentage survival relative to the missense, n = 3” value was 16.8%.

Regarding “siRNA EKI: siRNA duplex, sense GCACUGGAUCCAAAGCAUGtt, antisense CAUGCUUUGGAUCCAGUGCtt; same in Tables 9 and 11 (sense GCACUGGAUCCAAAGCAUGTT; antisense CAUGCUUUGGAUCCAGUGCTT; chemistry not given here)”, in data set [1], the “percentage survival relative to the missense, n = 1” value came out at 62%; the “percentage survival relative to the missense, n = 2” value is reported as 40.4%; the “percentage survival relative to the missense, n = 3” value turned out to be 39.7%. The “apoptosis by Annexin V staining” value in data set [3] is given as “undergo apoptosis”. Moreover, in data set [2], the “percentage survival relative to the missense, n = 1” value turned out to be 27.1%; the “percentage survival relative to the missense, n = 2” value worked out at 30.9%; the “percentage survival relative to the missense, n = 3” value worked out at 49.1%.

As to “siRNA MKNK: sense UACAUGGCCCCUGAGGUAGtt, antisense CUACCUCAGGGGCCAUGUAtt (sense UACAUGGCCCCUGAGGUAGTT; antisense CUACCUCAGGGGCCAUGUATT; chemistry not given here)”, the “percentage survival relative to the missense, n = 3” value in data set [1] is 8.4%. In data set [2], the “percentage survival relative to the missense, n = 1” value is 11.5%; the “percentage survival relative to the missense, n = 2” value is on record as 67.9%; the “percentage survival relative to the missense, n = 3” value is reported as 23.3%.

On to “siRNA Survivin: positive control siRNA, sense GAACUGGCCCUUCUUGGAGtt, antisense CUCCAAGAAGGGCCAGUUCtt (sense GAACUGGCCCUUCUUGGAGTT; antisense CUCCAAGAAGGGCCAGUUCTT; chemistry not given here) [reference compound]”, for which, in data set [1], the “percentage survival relative to the missense, n = 1” value amounted to 39.2% and the “percentage survival relative to the missense, n = 3” value was 83.6%. For the same substance, in data set [2], the “percentage survival relative to the missense, n = 1” value is 28.5%; the “percentage survival relative to the missense, n = 2” value was determined as 62.4%; the “percentage survival relative to the missense, n = 3” value worked out at 67.3%.

Take “siRNA FLT4: sense GUACGGCAACCUCUCCAACtt, antisense GUUGGAGAGGUUGCCGUACtt (sense GUACGGCAACCUCUCCAACTT; antisense GUUGGAGAGGUUGCCGUACTT; chemistry not given here)”: in data set [1], the “percentage survival relative to the missense, n = 2” value amounted to 71.7% and the “percentage survival relative to the missense, n = 3” value is 8.4%. Besides, in data set [2], the “percentage survival relative to the missense, n = 1” value was 45.4% and the “percentage survival relative to the missense, n = 3” value is 28.7%.

On to “siRNA PSKH1: sense GAACCUGCACCGCUCCAUAtt, antisense UAUGGAGCGGUGCAGGUUCtt (sense GAACCUGCACCGCUCCAUATT; antisense UAUGGAGCGGUGCAGGUUCTT; chemistry not given here)”, for which the “percentage survival relative to the missense, n = 1” value was 29.8% in data set [1] and 51.7% in data set [2].

For the substance “siRNA NTKL: siRNA duplex, sense UGUGGAGCUGAUGAAGCACtt, antisense GUGCUUCAUCAGCUCCACAtt; same in Tables 9 and 11 (sense UGUGGAGCUGAUGAAGCACTT; antisense GUGCUUCAUCAGCUCCACATT; chemistry not given here)”, in data set [1], the “percentage survival relative to the missense, n = 1” value was determined as 11.6%; the “percentage survival relative to the missense, n = 2” value was found to be 45.7%; the “percentage survival relative to the missense, n = 3” value was 14.4%. Besides, in data set [3], the “apoptosis by Annexin V staining” value is given as “undergo apoptosis”. In data set [2], the “percentage survival relative to the missense, n = 1” value turned out to be 18.9%; the “percentage survival relative to the missense, n = 2” value is listed as 45.3%; the “percentage survival relative to the missense, n = 3” value amounted to 28.1%.

In the case of “siRNA MAK: sense GAAGCCAAGCAUGGGUGUUtt, antisense AACACCCAUGCUUGGCUUCtt (sense GAAGCCAAGCAUGGGUGUUTT; antisense AACACCCAUGCUUGGCUUCTT; chemistry not given here)”, the figures for the “percentage survival relative to the missense, n = 1” value in data set [1] and in data set [2] were 69.6% and 51.6%, respectively. In data set [2], the “percentage survival relative to the missense, n = 3” value is listed as 42.8%.

“siRNA MAPKK5: sense GAGGACAGGUUAAGCUGUGtt, antisense CACAGCUUAACCUGUCCUCtt (sense GAGGACAGGUUAAGCUGUGTT; antisense CACAGCUUAACCUGUCCUCTT; chemistry not given here)”: in data set [1], the “percentage survival relative to the missense, n = 1” value was 30.5% and the “percentage survival relative to the missense, n = 3” value is on record as 8.3%. Besides, in data set [2], the “percentage survival relative to the missense, n = 1” value is reported as 48.5%.
